# Experimental data from paper PMC9011347, “Small-Molecule Inhibitors Targeting Lipolysis in Human Adipocytes” (Journal of the American Chemical Society, 2022).
# Experiments:
# [1] = target: T1, PNPLA1 (Homo sapiens, UniProt Q8N8W4); assay: PNPLA1-dependent ω-O-acylceramide formation in HEK293T cells; type: cell-based; conditions: NG-497 40 µM, Orlistat 40 µM
# T1 construct: expressed in transfected cells; host or cells: HEK293T cells
# Experimental: Fig. S3: Investigation of off-target effects of NG-497 on structurally and functionally related lipid hydrolases. (a) PNPLA1-dependent formation of acylceramides was monitored in a cell-based assay in HEK293T cells. Experiments were performed in the presence or absence of NG-497 (40 µM) and the non-selective lipase inhibitor Orlistat (40 µM). Orlistat, but not NG-497, inhibited PNPLA1/CGI-58-dependent ω-O-acylceramide formation. (b-h) Enzymes were overexpressed in Expi293 cells and cell lysates were used as source of enzymatic activity. […] Experiments were performed in the presence or absence of NG-497 (100 µM) and the formation of reaction products was monitored. […]
# Data were calculated relative to the basal activity detected in LacZ-transfected controls. […]
# LPL activity was inhibited using an anti-LPL antibody. All data are presented as mean ± S.D. Statistical significance was determined via ANOVA followed by Bonferroni post hoc test ( ***, p < 0.001). […]
# Released free fatty acids were quantified via NEFA C kit (Fujifilm Wako Chemicals, Neuss, Germany) and release of p-nitrophenol was measured at 405 nm. […] Cellular ω-O-acylceramide formation was monitored using [1-14C]linoleic acid as tracer. […] The activity of purified human pancreatic lipase (MilliporeSigma #SRE0028) was determined as previously described7 in the presence or absence of NG-497 (100µM) or Orlistat (20 µM). […]
# [2] = target: T2, human ATGL (Homo sapiens, UniProt Q96AD5); assay: TAG hydrolase assay, lysates of Expi293 cells overexpressing ATGL, purified CGI-58, radiolabeled triolein; type: biochemical; conditions: inhibition of TAG hydrolase activity of human ATGL, Expi293 lysates, purified CGI-58, radiolabeled triolein
# T2 construct: host or cells: Expi293 cells, crude lysate
# T2 sequence (Q96AD5 1-504): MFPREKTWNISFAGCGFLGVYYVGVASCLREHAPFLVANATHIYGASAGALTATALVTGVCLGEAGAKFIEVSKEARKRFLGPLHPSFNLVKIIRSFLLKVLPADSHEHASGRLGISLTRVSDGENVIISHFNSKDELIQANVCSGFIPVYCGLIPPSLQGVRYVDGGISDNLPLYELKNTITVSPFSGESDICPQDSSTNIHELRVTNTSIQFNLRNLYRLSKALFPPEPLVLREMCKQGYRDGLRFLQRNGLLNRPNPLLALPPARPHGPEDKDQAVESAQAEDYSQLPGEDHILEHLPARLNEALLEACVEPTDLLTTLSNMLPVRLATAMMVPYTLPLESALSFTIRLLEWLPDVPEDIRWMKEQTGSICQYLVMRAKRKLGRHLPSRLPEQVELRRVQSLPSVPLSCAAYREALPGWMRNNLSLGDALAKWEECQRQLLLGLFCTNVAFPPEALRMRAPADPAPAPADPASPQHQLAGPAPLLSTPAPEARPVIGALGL
# Excerpt: We previously developed Atglistatin (Ai), a selective inhibitor of mouse ATGL,[31],[32] which is ineffective against human ATGL.[17] Ai acts as a competitive inhibitor targeting the minimal active domain of ATGL ranging from aa 1–254.[33] This domain is highly conserved in different mammalian species (∼90% identity, Table 1) and comprises the patatin-like domain, eponymous for all members of the patatin-like phospholipase domain-containing (PNPLA) protein family.[34] We first investigated the species selectivity of Ai by performing TAG hydrolase assays[35] with lysates from Expi293 cells expressing ATGL orthologues of different species. The activity of ATGL is strongly stimulated by the co-activator protein comparative gene identification-58 (CGI-58, also known as α/β hydrolase domain containing 5, ABHD5)[36] and can be suppressed by the inhibitory protein G0/G1 switch 2 (G0S2).[37] We therefore determined ATGL activity in the presence and absence of mouse CGI-58, mouse G0S2, and Ai. As shown in Figure 1a–i, all ATGL orthologues were expressed, enzymatically active, stimulated by mouse CGI-58, and inactivated by mouse G0S2. Ai inhibited mouse (Figure 1a), rat (Figure 1b), goat (Figure 1c), dog (Figure 1e), and marmoset ATGL (Figure 1f), but not pig (Figure 1d), rhesus monkey (Figure 1g), or human ATGL (Figure 1h).
# To develop an inhibitor for human ATGL, we screened compounds synthesized in the course of the development of Ai.[31] Screenings were performed in the presence of purified CGI-58 using cell lysates of Expi293 cells overexpressing ATGL as a source of enzymatic activity and radiolabeled triolein as substrate as described above (Figure 1). […] In an iterative optimization process, which encompassed the synthesis and testing of >150 compounds (not shown), we varied the nature of the top aryl ring (Figure 2a). Replacement of the top phenyl group with a pyridine moiety (compound 2) led to a significant improvement in inhibitor efficacy (IC50 = 3 μM), which we interpret as a result from a smaller angle between the 1,3-arrangement of the aryl- and the ester-substituents due to the shorter C–N bond length within the pyridine group. […] The introduction of a methoxy residue at this position finally led to compound NG-497 showing an IC50 value of 1 μM.
# Experimental details, materials, and methods
# Expression of recombinant ATGL constructs and preparation of cell lysates. Expi293 cells were cultivated in Expi293 Expression Medium (GIBCO, Thermo Fisher Scientific, Waltham, USA) at standard conditions (37°C, 5% CO2, 95% humidified atmosphere, 125 rpm). DNA constructs containing ATGL from different species and chimeric ATGL variants in pcDNA3.1(+)myc-His C Vector were obtained from BioCat GmbH (Heidelberg, Germany). Cells were transfected with ExpiFectamine293 Transfection Kit (GIBCO) in Opti-Mem reduced serum medium (GIBCO) according to the manufacturer’s instructions. After 48 h, cells were harvested by centrifugation and washed three times with PBS. Cells were disrupted in buffer A (0.25 M sucrose, 1 mM EDTA, 1 mM dithiothreitol, 20µg/ml leupeptin, 2 µg/ml antipain, 1 µg/ml pepstatin, pH 7.0) by sonication (Virsonic 475, Virtis, Gardiner, USA). Nuclei and debris were removed by centrifugation at 1,000 g and 4°C for 10 min. Protein concentrations were determined using Bio-Rad protein assay (Bio-Rad 785, Bio-Rad Laboratories, Munich, Germany) using BSA as standard.
# Expression and purification of mouse CGI-58. CGI-58 was expressed and purified as described 1. In brief, the coding sequence of mouse Cgi-58 was cloned into pHis-Sumo and co-transformed with the plasmid pTf16 expressing the chaperone Tig into E. coli BL21(DE3). Cells were cultured overnight at 37°C and 180 rpm in the presence of 40 µg/ml kanamycin and 34 µg/ml chloramphenicol. Thereafter, cells were transferred into fresh LB medium, grown until OD600 of 0.6, and expression was induced […]
# by the addition of 0.5 mM IPTG. […]
# T1 sequence (Q8N8W4 whole entry): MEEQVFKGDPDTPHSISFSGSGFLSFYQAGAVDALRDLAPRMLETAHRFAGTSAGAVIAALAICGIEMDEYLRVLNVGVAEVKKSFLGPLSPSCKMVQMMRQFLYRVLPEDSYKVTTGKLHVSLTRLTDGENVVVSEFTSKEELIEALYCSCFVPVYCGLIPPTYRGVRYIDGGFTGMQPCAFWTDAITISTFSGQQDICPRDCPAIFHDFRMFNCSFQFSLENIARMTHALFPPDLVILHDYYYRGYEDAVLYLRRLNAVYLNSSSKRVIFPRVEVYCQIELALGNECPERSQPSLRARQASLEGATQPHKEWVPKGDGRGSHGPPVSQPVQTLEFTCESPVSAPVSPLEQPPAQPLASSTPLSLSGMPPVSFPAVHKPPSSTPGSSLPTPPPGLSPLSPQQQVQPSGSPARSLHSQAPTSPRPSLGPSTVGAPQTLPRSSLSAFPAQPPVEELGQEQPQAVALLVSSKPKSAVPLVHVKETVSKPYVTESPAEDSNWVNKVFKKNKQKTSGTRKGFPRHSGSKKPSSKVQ
SMILES,PNPLA1/CGI-58-dependent ω-O-acylceramide formation [1],IC50 [2] [µM]
"CCCCCCCCCCC[C@@H](C[C@@H]1OC(=O)[C@H]1CCCCCC)OC(=O)[C@H](CC(C)C)NC=O [Orlistat, reference compound]",inhibited,
CCOC(=O)c1cccc(-c2ccc(OCC)cc2)c1 [compound 1],,35
CCOC(=O)c1cccc(-c2ccc(OCC)cc2)n1 [compound 2],,3
CCOc1ccc(-c2cccc(C(=O)OC(C)C)n2)cc1 [compound 3],,1.8
CCOc1ccc(-c2cc(C)cc(C(=O)OC(C)C)n2)cc1 [compound 4],,1.6 ± 0.1
